According to US6610860B2, “C7 ester substituted taxanes” (FSU Research Foundation, Inc., priority 2000, dated 2003):

System: HCT116 cells
Test: In vitro cytotoxicity measured by the cell colony formation assay
Format: cell-based
Conditions: 72 h drug incubation, colonies counted after 7 days, ID50 = drug concentration producing 50% inhibition of colony formation, read-out: IN VITRO ID 50 (nm) HCT116
Protocol: In Vitro Cytotoxicity Measured by the Cell Colony Formation Assay
Four hundred cells (HCT116) were plated in 60 mm Petri dishes containing 2.7 mL of medium (modified McCoy's 5a medium containing 10% fetal bovine serum and 100 units/mL penicillin and 100 µg/mL streptomycin). The cells were incubated in a CO2 incubator at 37° C. for 5 h for attachment to the bottom of Petri dishes. The compounds identified in Example 2 were made up fresh in medium at ten times the final concentration, and then 0.3 mL of this stock solution was added to the 2.7 mL of medium in the dish. The cells were then incubated with drugs for 72 h at 37° C. At the end of incubation the drug-containing media were decanted, the dishes were rinsed with 4 mL of Hank's Balance Salt Solution (HBSS), 5 mL of fresh medium was added, and the dishes were returned to the incubator for colony formation. The cell colonies were counted using a colony counter after incubation for 7 days.

CC(=O)O[C@H]1C(=O)[C@@]2(C)[C@H]([C@H](OC(=O)c3ccccc3)[C@]3(O)C[C@H](OC(=O)[C@H](O)[C@@H](NC(=O)c4ccccc4)c4ccccc4)C(C)=C1C3(C)C)[C@]1(OC(C)=O)CO[C@@H]1C[C@@H]2O [taxol]
IC50: 2.1 nM
